# Patent US9322066B2, “Predictors for cancer treatment” (priority 2011, dated 2016)
# Test system: relapsed or refractory, rituximab-naive or -sensitive follicular B-cell NHL
# Assay: Treatment free interval, Vc-R vs rituximab study, by biomarker
# Type: in vivo, human
# Set-up: Treatment Free Interval, Median: unit not given here
# Excerpt: Non-Hodgkin lymphoma (NHL) encompasses several unique malignant lymphoid disease entities that vary in clinical behavior, morphologic appearance, immunologic, and molecular phenotype. […] A randomized, open-label, active-controlled, multicenter, multinational, prospective study to compare the efficacy and safety of the combination of bortezomib and rituximab (Vc-R) to single-agent rituximab in subjects who have relapsed or refractory, rituximab-naive or -sensitive follicular B-cell NHL was performed.
# Subjects were centrally randomized to Treatment Groups A (Vc-R) or B (rituximab) in a 1:1 ratio taking into account the following stratification factors: • Follicular Lymphoma International Prognostic Index (FLIPI) score (low [0 or 1 factor], intermediate [2 factors], high [≧3 factors]); • Prior rituximab therapy (yes, no); • Time since last dose of anti-lymphoma therapy (≦1 year, >1 year); • Region (United States/Canada, European Union, Rest of World).
# The following clinical endpoints were included in the analysis within each treatment group and an overall comparison was made with the biomarker-related endpoints: Progression-free survival, defined as the interval between the date of randomization and the date of progressive disease (PD) or death, whichever is first reported in the ITT population; overall survival; overall response rate (complete response [CR]+CR unconfirmed [CRu]+partial response [PR]); overall CR rate (CR+CRu); duration of response; time to next anti-lymphoma therapy; and treatment free interval.
# [1] = P65 % NUCLEAR STAINING: 0, 1 Prior Line of Therapy, IRC Review
# [2] = P65 % NUCLEAR STAINING: ≦5%, 2 Prior Lines of Therapy, IRC Review
# [3] = P65 % NUCLEAR STAINING: ≦5%, 5 Prior Lines of Therapy, IRC Review
# [4] = P65 % NUCLEAR STAINING: ≦5%, Prior Rituximab Therapy, IRC Review
# [5] = P65 % NUCLEAR STAINING: ≦5%, ≦65 years old, IRC Review
# [6] = P65 % POSITIVE CYTOPLASMIC SIGNAL: >90%, 1 Prior Line of Therapy, IRC Review
# [7] = P65 % POSITIVE CYTOPLASMIC SIGNAL: >90%, No Subgroup, IRC Review
# [8] = P65 % POSITIVE CYTOPLASMIC SIGNAL: >90%, White, IRC Review
# [9] = P65 % POSITIVE CYTOPLASMIC SIGNAL: >90%, ≦65 years old, IRC Review
# [10] = P65 INTENSITY CYTOPLASMIC SIGNAL: ≦1+, Ann Arbor Stage III, IRC Review
# [11] = P65 INTENSITY CYTOPLASMIC SIGNAL: ≧2+, 1 Prior Line of Therapy, IRC Review
# [12] = P65 INTENSITY CYTOPLASMIC SIGNAL: ≧2+, ≦65 years old, IRC Review
# [13] = PSMB1/A171S: G/G, >1 year since last anti-lymphoma treatment, IRC Review
# [14] = PSMB1/A171S: G/G, No Subgroup, IRC Review
# [15] = PSMB1/A171S: G/G, ≦65 years old, IRC review
# [16] = PSMB1/I208N: T/T, >1 year since last anti-lymphoma treatment, IRC Review
# [17] = PSMB1/I208N: T/T, No Subgroup, IRC Review
# [18] = PSMB1/I208N: T/T, ≦65 years old, IRC review
# [19] = PSMB1/P11A: C/G, European Union, IRC Review
# [20] = PSMB1/P11A: C/G, No Subgroup, IRC Review
# [21] = PSMB1/P11A: C/G, ≦65 years old, IRC review
# [22] = PSMB1/P11A: G/G, ≦65 years old, IRC Review
# [23] = PSMB1/P193L: C/C, >1 year since last anti-lymphoma treatment, IRC Review
# [24] = PSMB1/P193L: C/C, ≦65 years old, IRC review
# [25] = PSMB2/E49X: G/G, >1 year since last anti-lymphoma treatment, IRC Review
# [26] = PSMB2/E49X: G/G, ≦65 years old, IRC review
# [27] = PSMB2/G187V: G/G, >1 year since last anti-lymphoma treatment, IRC Review
# [28] = PSMB2/G187V: G/G, ≦65 years old, IRC review
# [29] = PSMB2/L159F: C/C, >1 year since last anti-lymphoma treatment, IRC Review
# [30] = PSMB2/L159F: C/C, ≦65 years old, IRC review
# [31] = PSMB5/L206M: C/C, >1 year since last anti-lymphoma treatment, IRC Review
# [32] = PSMB5/L206M: C/C, ≦65 years old, IRC review
# [33] = PSMB5/R24C: C/C, >1 year since last anti-lymphoma treatment, IRC Review
# [34] = PSMB5/R24C: C/C, ≦65 years old, IRC review
# [35] = PSMB6/A234D: C/C, >1 year since last anti-lymphoma treatment, IRC Review
# [36] = PSMB6/A234D: C/C, ≦65 years old, IRC review
# [37] = PSMB6/P107A: C/C, >1 year since last anti-lymphoma treatment, IRC Review
# [38] = PSMB6/P107A: C/C, ≦65 years old, IRC review
# [39] = PSMB8/G8R: G/G, >1 year since last anti-lymphoma treatment, IRC Review
# [40] = PSMB8/G8R: G/G, ≦65 years old, IRC review
# [41] = PSMB8/R141C: C/C, >1 year since last anti-lymphoma treatment, IRC Review
# [42] = PSMB8/R141C: C/C, ≦65 years old, IRC review
# [43] = PSMB8/V182M: G/G, >1 year since last anti-lymphoma treatment, IRC review
# [44] = PSMB8/V182M: G/G, ≦65 years old, IRC review
# [45] = PSMB9/G9E: G/G, >1 year since last anti-lymphoma treatment, IRC review
# [46] = PSMB9/G9E: G/G, ≦65 years old, IRC review
# [47] = PSMB9/V32I: C/C, >1 year since last anti-lymphoma treatment, IRC review
# [48] = PSMB9/V32I: C/C, High Tumor Burden, IRC Review
# [49] = PSMB9/V32I: C/C, ≦65 years old, IRC review
substance,measurement,setting,value
rituximab,"Treatment Free Interval, Median","P27 SIGNAL INTENSITY: ≧2+, Prior Rituximab Therapy, IRC Review",272
same,"Treatment Free Interval, Evt/N",[1],54/79
same,"Treatment Free Interval, Median",[1],406
same,"Treatment Free Interval, Evt/N",[2],7/9
same,"Treatment Free Interval, Median",[2],85
same,"Treatment Free Interval, Evt/N",[3],3/3
same,"Treatment Free Interval, Median",[3],95
same,"Treatment Free Interval, Evt/N",[4],16/21
same,"Treatment Free Interval, Median",[4],93
same,"Treatment Free Interval, Evt/N",[5],19/29
same,"Treatment Free Interval, Median",[5],234
same,"Treatment Free Interval, Evt/N",[6],59/89
same,"Treatment Free Interval, Median",[6],409
same,"Treatment Free Interval, Evt/N",[7],129/204
same,"Treatment Free Interval, Median",[7],363
same,"Treatment Free Interval, Evt/N",[8],113/179
same,"Treatment Free Interval, Median",[8],363
same,"Treatment Free Interval, Evt/N",[9],103/154
same,"Treatment Free Interval, Median",[9],343
same,"Treatment Free Interval, Evt/N",[10],10/11
same,"Treatment Free Interval, Median",[10],119
same,"Treatment Free Interval, Evt/N",[11],54/85
same,"Treatment Free Interval, Median",[11],427
same,"Treatment Free Interval, Evt/N",[12],101/152
same,"Treatment Free Interval, Median",[12],343
same,"Treatment Free Interval, Evt/N",[13],98/165
same,"Treatment Free Interval, Median",[13],547
same,"Treatment Free Interval, Evt/N",[14],173/276
same,"Treatment Free Interval, Median",[14],406
same,"Treatment Free Interval, Evt/N",[15],130/198
same,"Treatment Free Interval, Median",[15],344
same,"Treatment Free Interval, Evt/N",[16],98/165
same,"Treatment Free Interval, Median",[16],547
same,"Treatment Free Interval, Evt/N",[17],173/276
same,"Treatment Free Interval, Median",[17],406
same,"Treatment Free Interval, Evt/N",[18],130/198
same,"Treatment Free Interval, Median",[18],344
same,"Treatment Free Interval, Evt/N",[19],34/49
same,"Treatment Free Interval, Median",[19],309
same,"Treatment Free Interval, Median","PSMB1/P11A: C/G, Female, IRC Review",406
same,"Treatment Free Interval, Evt/N",[20],78/127
same,"Treatment Free Interval, Median",[20],409
same,"Treatment Free Interval, Evt/N",[21],63/96
same,"Treatment Free Interval, Median",[21],406
same,"Treatment Free Interval, Evt/N",[22],21/25
same,"Treatment Free Interval, Median",[22],269
same,"Treatment Free Interval, Evt/N",[23],98/165
same,"Treatment Free Interval, Median",[23],547
same,"Treatment Free Interval, Median","PSMB1/P193L: C/C, No Subgroup, IRC Review",406
same,"Treatment Free Interval, Evt/N",[24],130/198
same,"Treatment Free Interval, Median",[24],344
same,"Treatment Free Interval, Evt/N",[25],98/165
same,"Treatment Free Interval, Median",[25],547
same,"Treatment Free Interval, Evt/N",[26],130/198
same,"Treatment Free Interval, Median",[26],344
same,"Treatment Free Interval, Evt/N",[27],98/165
same,"Treatment Free Interval, Median",[27],547
same,"Treatment Free Interval, Evt/N",[28],130/198
same,"Treatment Free Interval, Median",[28],344
same,"Treatment Free Interval, Evt/N",[29],98/165
same,"Treatment Free Interval, Median",[29],547
same,"Treatment Free Interval, Evt/N",[30],130/198
same,"Treatment Free Interval, Median",[30],344
same,"Treatment Free Interval, Evt/N",[31],98/165
same,"Treatment Free Interval, Median",[31],547
same,"Treatment Free Interval, Evt/N",[32],130/198
same,"Treatment Free Interval, Median",[32],344
same,"Treatment Free Interval, Evt/N",[33],81/137
same,"Treatment Free Interval, Median",[33],507
same,"Treatment Free Interval, Evt/N",[34],113/170
same,"Treatment Free Interval, Median",[34],344
same,"Treatment Free Interval, Evt/N",[35],98/165
same,"Treatment Free Interval, Median",[35],547
same,"Treatment Free Interval, Evt/N",[36],130/198
same,"Treatment Free Interval, Median",[36],344
same,"Treatment Free Interval, Evt/N",[37],95/159
same,"Treatment Free Interval, Median",[37],561
same,"Treatment Free Interval, Evt/N",[38],125/189
same,"Treatment Free Interval, Median",[38],363
same,"Treatment Free Interval, Evt/N",[39],91/155
same,"Treatment Free Interval, Median",[39],562
same,"Treatment Free Interval, Evt/N",[40],123/189
same,"Treatment Free Interval, Median",[40],344
same,"Treatment Free Interval, Evt/N",[41],98/165
same,"Treatment Free Interval, Median",[41],547
same,"Treatment Free Interval, Evt/N",[42],130/198
same,"Treatment Free Interval, Median",[42],344
same,"Treatment Free Interval, Evt/N",[43],98/165
same,"Treatment Free Interval, Median",[43],547
same,"Treatment Free Interval, Evt/N",[44],130/198
same,"Treatment Free Interval, Median",[44],344
same,"Treatment Free Interval, Evt/N",[45],97/163
same,"Treatment Free Interval, Median",[45],547
same,"Treatment Free Interval, Evt/N",[46],129/196
same,"Treatment Free Interval, Median",[46],344
same,"Treatment Free Interval, Evt/N",[47],96/160
same,"Treatment Free Interval, Median",[47],507
same,"Treatment Free Interval, Evt/N",[48],106/142
same,"Treatment Free Interval, Median",[48],234
same,"Treatment Free Interval, Evt/N",[49],127/192
same,"Treatment Free Interval, Median",[49],344
